Assay results reported in patent US8071620B2, “Carbamic acid compounds comprising a bicyclic heteroaryl group as HDAC inhibitors” (Topotarget UK Limited, priority 2003, dated 2011).
Where a name gives a salt, the structure may show the parent alone.

Legend:
HDAC (HeLa cell extract) = assay: Primary assay: deacetylase activity (HDAC inhibition), HeLa cell extract; set-up: species or system human; conditions: HeLa cell extract as HDAC source; read-out: Biochemical Assay Data HDAC Inhibition (IC50) HeLa
From the text: Briefly, this assay relies on the release of radioactive acetate from a radioactively labelled histone fragment by the action of HDAC enzyme. Test compounds, which inhibit HDAC, reduce the yield of radioactive acetate. Signal (e.g., scintillation counts) measured in the presence and absence of a test compound provide an indication of that compound's ability to inhibit HDAC activity. Decreased activity indicates increased inhibition by the test compound.
The histone fragment was an N-terminal sequence from histone H4, and it was labelled with radioactively labelled acetyl groups using tritiated acetylcoenzyme A (coA) in conjunction with an enzyme which is the histone acetyltransferase domain of the transcriptional coactivator p300. […] The acetylated peptide was then separated from free acetyl coA by size exclusion chromatography on Sephadex G-15 (Sigma G-15-120), using distilled H2O as the mobile phase.
After purification of the radiolabelled histone fragment, it was incubated with a source of HDAC (e.g., an extract of HeLa cells (a rich source of HDAC), recombinantly produced HDAC1 or HDAC2) and any released acetate was extracted into an organic phase and quantitatively determined using scintillation counting. By including a test compound with the source of HDAC, that compound's ability to inhibit the HDAC was determined.
Alternatively, the activity of the compounds as HDAC inhibitors was determined using a commercially available fluorescent assay kit: (Fluor de Lys™, BioMol Research Labs, Inc., Plymouth Meeting, USA).
Extensive comparative studies have shown that Primary Assay (1) and Primary Assay (2), discussed above, yield equivalent results. Primary Assay results reported herein are (a) exclusively from (1); (b) exclusively from (2); or (c) from both (1) and (2).
The HeLa cell extract was made from HeLa cells (ATCC Ref. No. CCL-2) by freeze-thawing three times in 60 mM TrisCl pH 8.0, 450 mM NaCl, 30% glycerol. Two cell volumes of extraction buffer were used, and particulate material was centrifuged out (20800 g, 4° C., 10 min). The supernatant extract having deacetylase activity was aliquoted and frozen for storage.
Percent activity (% activity) for each test compound was calculated as: % activity={(S^c−B)/(S°−B)}×100 wherein S^c denotes signal measured in the presence of enzyme and the compound being tested, S° denotes signal measured in the presence of enzyme but in the absence of the compound being tested, and B denotes the background signal measured in the absence of both enzyme and compound being tested.

HeLa cells = assay: Secondary assay: cell proliferation inhibition WST-1, HeLa; type: cell-based; conditions: Homo sapiens, 48 h
Method: (§1) Compounds with HDAC inhibition activity, as determined using the primary assay, were subsequently evaluated using secondary cell-based assays. The following cell lines were used:
HeLa—Human cervical adenocarcinoma cell line (ATCC ref. No. CCL-2).
(§2) Cells were cultured, exposed to candidate compounds, and incubated for a time, and the number of viable cells was then assessed using the Cell Proliferation Reagent WST-1 from Boehringer Mannheim (Cat. No. 1 644 807), described below.
(§3) Cells were plated in 96-well plates at 3-10×10^3 cells/well in 100 μL of culture medium. The following day, different concentrations of candidate compounds were added and the cells incubated at 37° C. for 48 h. Subsequently, 10 μL/well of WST-1 reagent was added and the cells reincubated for 1 hour. After the incubation time, absorbance was measured.
(§4) WST-1 is a tetrazolium salt which is cleaved to formazan dye by cellular enzymes. An expansion in the number of viable cells results in an increase in the overall activity of mitochondrial dehydrogenases in the sample. This augmentation in the enzyme activity leads to an increase in the amount of formazan dye formed, which directly correlates to the number of metabolically active cells in the culture. The formazan dye produced is quantified by a scanning multiwell spectrophotometer by measuring the absorbance of the dye solution at 450 nm wavelength (reference wavelength 690 nm).
(§5) Percent activity (% activity) in reducing the number of viable cells was calculated for each test compound as: % activity={(S^c−B)/(S°−B)}×100 wherein S^c denotes signal measured in the presence of the compound being tested, S° denotes signal measured in the absence of the compound being tested, and B denotes the background signal measured in blank wells containing medium only. […] IC50 values were calculated using the software package Prism 3.0 (GraphPad Software Inc., San Diego, Calif.), setting top value at 100 and bottom value at 0.

[1] = system: K11 HPV E7 transformed human keratinocyte line; assay: Secondary assay: cell proliferation inhibition WST-1, K11; type: cell-based; conditions: K11 cells, 48 h
Method: as §1
K11—HPV E7 transformed human keratinocyte line provided by Pidder Jansen-Duerr, Institut für Biomedizinische Alternsforschung, Innsbruck, Austria.
as §3, §4, §5

JURKAT human T-cell line = assay: Secondary assay: cell proliferation inhibition WST-1, Jurkat; type: cell-based; conditions: Jurkat cells, 48 h
Method: as §1
JURKAT—Human T-cell line (ATCC no. TIB-152).
as §2, §3, §4, §5

Compound	IC50 (HDAC (HeLa cell extract))	melting point	IC50 (HeLa cells)	also measured
O=C(NO)c1ccc(OCc2ccc3ccccc3n2)cc1 [PX119141, N-Hydroxy-4-(2-quinolinylmethoxy)benzamide]	186 nM	202 to 204 °C		
Cc1ccc2ccc(/C=C/C(=O)NO)nc2c1 [PX118869, (E)-N-Hydroxy-3-(7-methyl-2-quinolinyl)-2-propenamide]	38 nM	191 to 193 °C	1500 nM	
CC(/C=C/C(=O)NO)=C\[C@@H](C)C(=O)c1ccc(N(C)C)cc1 [TSA, trichostatin A]			350 nM	IC50 ([1]; Homo sapiens, Keratinocyte): 380 nM; IC50 (JURKAT human T-cell line; Homo sapiens): 42 nM
Cc1nc2ccccc2nc1/C=C/C(=O)NO [PX118866, (E)-N-Hydroxy-3-(3-methyl-2-quinoxalinyl)-2-propenamide]		170 to 172 °C	33100 nM	
Cc1ccc2nc(/C=C/C(=O)NO)ccc2c1 [PX118839, (E)-3-(6-Methyl-2-quinolinyl)-N-hydroxy-2-propenamide]	40 nM	200 to 202 °C (dec.)	2400 nM	
COc1ccc2nc(/C=C/C(=O)NO)ccc2c1 [PX118887, (E)-N-Hydroxy-3-(6-methoxy-2-quinolinyl)-2-propenamide]	28 nM	172 to 175 °C	1800 nM	
O=C(/C=C/c1nc2ccccc2o1)NO [PX118835, (E)-3-(1,3-Benzoxazol-2-yl)-N-hydroxy-2-propenamide]	32 nM		1700 nM	
O=C(/C=C/c1ccc2ccccc2n1)NO [PX117449, (E)-N-Hydroxy-3-(2-quinolinyl)-2-propenamide]	35 nM	159.5 to 160.5 °C	1800 nM	IC50 ([1]; Homo sapiens, Keratinocyte): 12400 nM; IC50 (JURKAT human T-cell line; Homo sapiens): 1000 nM
O=C(/C=C/c1cccc2cccnc12)NO [PX119071, (E)-3-(8-Quinolinyl)-N-hydroxy-2-propenamide]		159 to 160 °C		
O=C(/C=C/c1cnc2ccccc2c1)NO [PX118987, (E)-N-Hydroxy-3-(3-quinolinyl)-2-propenamide]	197 nM	205 to 207 °C	3700 nM	
O=C(/C=C/c1ccc2cc(F)ccc2n1)NO [PX118886, (E)-3-(6-Fluoro-2-quinolinyl)-N-hydroxy-2-propenamide]	44 nM		2600 nM	
Cc1ccc2nc(CCC(=O)NO)cc(C)c2c1 [PX119138, 3-(4,6-Dimethyl-2-quinolinyl)-N-hydroxypropanamide]	619 nM	192 to 194 °C		
oxamflatin				IC50 (JURKAT human T-cell line): 170 nM
O=C(/C=C/c1cccc2ncccc12)NO [PX119088, (E)-N-Hydroxy-3-(5-quinolinyl)-2-propenamide]		211 to 213 °C	17800 nM	
O=C(CCc1ccc2cccc(O)c2n1)NO [PX119095, N-Hydroxy-3-(8-hydroxy-2-quinolinyl)propanamide]		165 to 167 °C	22300 nM	
Nc1ccccc1NC(=O)c1ccc(CNC(=O)OCc2cccnc2)cc1 [MS-275]				IC50 [1]: 9160 nM; IC50 (JURKAT human T-cell line): 365 nM
O=C(/C=C/c1ccc2ncccc2c1)NO [PX119039, (E)-N-Hydroxy-3-(6-quinolinyl)-2-propenamide]	265 nM		14100 nM	

Further lines, with some results ahead:

IC50 (HDAC (HeLa cell extract))	melting point	IC50 (HeLa cells)	Compound	also measured
330 nM	160 to 162 °C		O=C(/C=C/C=C/c1ccc2ccccc2n1)NO [PX119135, (2E,4E)-N-Hydroxy-5-(2-quinolinyl)-2,4-pentadienamide]	
42 nM		2100 nM	O=C(/C=C/c1cnc2ccccc2n1)NO [PX118840, (E)-3-(2-Quinoxalinyl)-N-hydroxy-2-propenamide sodium salt]	
609 nM	199 to 201 °C	1300 nM	Cc1ccc2nc(/C=C/C(=O)NO)cc(C)c2c1 [PX118864, (E)-3-(4,6-Dimethyl-2-quinolinyl)-N-hydroxy-2-propenamide]	
262 nM	180 to 182 °C	3900 nM	O=C(/C=C/c1ccc2cccc(OCc3ccccc3)c2n1)NO [PX118867, (E)-3-[8-(Benzyloxy)-2-quinolinyl]-N-hydroxy-2-propenamide]	
218 nM	204 to 206 °C	1400 nM	COc1ccc2nc(/C=C/C(=O)NO)ccc2c1Br [PX118865, (E)-3-(5-Bromo-6-methoxy-2-quinolinyl)-N-hydroxy-2-propenamide]	
250 nM	159 to 160 °C	27200 nM	O=C(CCc1ccc2ccccc2n1)NO [PX118828, N-Hydroxy-3-(2-quinolinyl)propanamide]	
111 nM	203 to 205 °C	6700 nM	O=C(/C=C/c1ccc2cccnc2c1)NO [PX119068, (E)-N-Hydroxy-3-(7-quinolinyl)-2-propenamide]	
	200 to 202 °C (dec.)		O=C(/C=C/c1cnc2ccccc2n1)NO (as salt: sodium) [PX118840, (E)-3-(2-Quinoxalinyl)-N-hydroxy-2-propenamide sodium salt]	
	225 to 227 °C		COc1ccc2nc(C)ccc2c1/C=C/C(=O)NO [PX119038, (E)-N-Hydroxy-3-(6-methoxy-2-methyl-5-quinolinyl)-2-propenamide]	
68 nM	204 to 206 °C	2700 nM	O=C(/C=C/c1ccnc2ccccc12)NO [PX118885, (E)-3-(4-Quinolinyl)-N-hydroxy-2-propenamide]	
30 nM	163 to 165 °C	7200 nM	O=C(/C=C/c1nc2ccccc2s1)NO [PX118915, (E)-3-(1,3-Benzothiazol-2-yl)-N-hydroxy-2-propenamide]	
	213 to 214 °C		O=C(CCc1nc2ccccc2[nH]c1=O)NO [PX119094, N-Hydroxy-3-(3-oxo-3,4-dihydro-2-quinoxalinyl)propanamide]	
